Measured values: patent US10173990B2, “URAT1 inhibitor” (Nippon Chemiphar Co., Ltd., priority 2014, dated 2019)
pIC50: −log10 of the molar value.

Molecular target: URAT1 (Homo sapiens (Human), UniProt Q96S37)
Experiment: Uptake of [14C] uric acid using HEK-URAT1
Type: cell-based
Conditions: for remaining activity at 10 µM: 2 min, [14C] uric acid uptake into URAT1 stably expressed HEK293 cells, 10 μM test compound, 5 μM uric acid, 2 minutes, 37° C., uptake without test compound = 100%, read-out: % control (10 μM); for pIC50: inhibition of [14C] uric acid uptake into URAT1 stably expressed HEK293 cells
Protocol: More specifically, the test is performed by culturing URAT1 stably expressed HEK293 cells (HEK-URAT1) or HEK293 cells transfected with empty vector (HEK-mock) in a DMEM culture medium in an incubator. Subsequently, 1×10^5 cells are respectively seeded in 24-well culture plate coated with poly D-lysine and the uptake test is started after the culturing.
The cells are washed with a solution for a test warmed to 37° C. and equilibrated. After a buffer solution is removed from the cells, 0.5 mL of an uptake solution containing 5 μM [^14C] uric acid with or without a test compound is respectively added and the cells are incubated. The cell uptake is stopped by adding a Hanks buffer solution and the cells are washed. The cells are lysed with 0.1 N sodium hydroxide and the radioactivity is measured using LSC6100 (Aloka Co., Ltd. Tokyo). Each uptake into HEK-URAT1 is acquired by subtracting uptake into HEK-mock cells from the value of HEK-URAT1, converting the result to per mg protein of cells, and setting the values from the uptake without the test compound as 100%.
URAT1 stably expressed HEK293 cells (HEK-URAT1) or HEK293 cells transfected with empty vector (HEK-mock) were cultured in DMEM culture medium supplemented with 10% fetal bovine serum in an incubator under conditions of 5% carbon dioxide at 37° C. Subsequently, 1×10^5 cells were respectively seeded in 24-well culture plate coated with poly D-lysine and the uptake test was started after the culturing for 3 days.
The uptake experiment of uric acid was performed at 37° C. […] After a buffer solution was removed from the cells, 0.5 mL of an uptake solution containing 5 μM [^14C] uric acid with or without a test compound was respectively added and the cells were incubated for 2 minutes. The cell uptake was stopped by adding an ice-cold Hanks buffer solution without chloride ions and the cells were washed 3 times. The cells were lysed with 0.1 N sodium hydroxide and the radioactivity was measured using LSC6100 (Aloka Co., Ltd. Tokyo). Each uptake into HEK-URAT1 was acquired by subtracting uptake into HEK-mock cells from the value of HEK-URAT1, converting the result to per mg protein of cells, and setting the value from uptake without the test compound as 100%. The uptake in each condition was performed in triplicate and each value was represented by average±standard deviation.
The URAT1 inhibitory action was measured according to the same method as in Example 118.

Sequence of URAT1 (Q96S37 whole entry): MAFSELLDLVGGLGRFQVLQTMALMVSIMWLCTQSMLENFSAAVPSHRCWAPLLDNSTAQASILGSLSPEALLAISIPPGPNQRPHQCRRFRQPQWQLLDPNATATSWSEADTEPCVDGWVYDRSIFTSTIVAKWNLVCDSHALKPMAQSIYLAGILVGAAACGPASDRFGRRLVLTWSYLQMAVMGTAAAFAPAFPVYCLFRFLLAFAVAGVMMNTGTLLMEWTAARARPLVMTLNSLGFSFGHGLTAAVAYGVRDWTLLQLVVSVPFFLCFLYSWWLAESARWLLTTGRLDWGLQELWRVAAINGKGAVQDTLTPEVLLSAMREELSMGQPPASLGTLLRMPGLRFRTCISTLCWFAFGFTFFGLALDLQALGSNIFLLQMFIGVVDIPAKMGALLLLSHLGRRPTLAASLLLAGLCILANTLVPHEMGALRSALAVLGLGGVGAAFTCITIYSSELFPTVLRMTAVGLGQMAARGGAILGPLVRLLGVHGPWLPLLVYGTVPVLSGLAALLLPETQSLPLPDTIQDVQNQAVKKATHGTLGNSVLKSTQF

| remaining activity at 10 µM | pIC50 | SMILES |
| --- | --- | --- |
| < 0.1% | 7.58 | N#Cc1ccc(-c2c(SC3(C(=O)O)CCCC3)ccc3cnsc23)cc1 [Example 68, 1-[[7-(4-Cyanophenyl)benzo[d]isothiazol-6-yl]thio]cyclopentan-1-carboxylic acid] |
| 6.4% | – | CC(C)C(Sc1ccc2cnsc2c1-c1ccc(C#N)cc1)C(=O)O (stereo not shown) [Example 70, 2-[[7-(4-Cyanophenyl)benzo[d]isothiazol-6-yl]thio]-3-methylbutanoic acid] |
| 12.7% | – | CC(C)c1ccc(-c2c(SC(C)(C)C(=O)O)ccc3cnsc23)cc1 [Example 76, 2-[[7-(4-Isopropylphenyl)benzo[d]isothiazol-6-yl]thio]-2-methylpropanoic acid] |
| 3.6% | 6.79 | CC(C)(Sc1ccc2cnsc2c1-c1ccc(C#N)c(F)c1)C(=O)O [Example 90, 2-[[7-(4-Cyano-3-fluorophenyl)benzo[d]isothiazol-6-yl]thio]-2-methylpropanoic acid] |
| 30.1% | – | CC(C)(Sc1ccc2ncsc2c1-c1ccc(OC(F)(F)F)cc1)C(=O)O [Example 64, 2-Methyl-2-[[7-[4-(trifluoromethoxy)phenyl]benzo[d]thiazol-6-yl]thio]propanoic acid] |
| 3.2% | 6.98 | CC(C)(Sc1ccc2cnsc2c1-c1ccc(C(F)(F)F)cc1)C(=O)O [Example 78, 2-Methyl-2-[[7-[4-(trifluoromethyl)phenyl]benzo[d]isothiazol-6-yl]thio]propanoic acid] |
| 13.8% | 5.61 | Cc1nsc2c(-c3ccc(C#N)cc3)c(SC3(C(=O)O)CCC3)ccc12 [Example 112, 1-[[7-(4-Cyanophenyl)-3-methylbenzo[d]isothiazol-6-yl]thio]cyclobutan-1-carb oxylic acid] |
| 29.2% | – | CC(C)(Sc1ccc2cnsc2c1-c1ccc(OC(F)(F)F)cc1)C(=O)O [Example 80, 2-Methyl-2-[[7-[4-(trifluoromethoxy)phenyl]benzo[d]isothiazol-6-yl]thio]propanoic acid] |
| < 0.1% | 7.92 | CC(C)(Sc1ccc2cnsc2c1-c1ccc([N+](=O)[O-])cc1)C(=O)O [Example 72, 2-Methyl-2-[[7-(4-nitrophenyl)benzo[d]isothiazol-6-yl]thio]propanoic acid] |
| 2.3% | 6.69 | CC(C)(Sc1ccc2cnsc2c1-c1cccc(C#N)c1)C(=O)O [Example 84, 2-[[7-(3-Cyanophenyl)benzo[d]isothiazol-6-yl]thio]-2-methylpropanoic acid] |
| 5.8% | 6.32 | CC(C)(C)C(Sc1ccc2cnsc2c1-c1ccc(C#N)cc1)C(=O)O (stereo not shown) [Example 114, 2-[[7-(4-Cyanophenyl)benzo[d]isothiazol-6-yl]thio]-3,3-dimethylbutanoic acid] |
| < 0.1% | 7.68 | CCC(CC)(Sc1ccc2cnsc2c1-c1ccc(C#N)cc1)C(=O)O [Example 113, 2-[[7-(4-Cyanophenyl)benzo[d]isothiazol-6-yl]thio]-2-ethylbutanoic acid] |
| 6.8% | – | Cc1ccc(-c2c(SC(C)(C)C(=O)O)ccc3cnsc23)cc1 [Example 74, 2-Methyl-2-[[7-(p-tolyl)benzo[d]isothiazol-6-yl]thio]propanoic acid] |
| 3.8% | – | Cc1cc(-c2c(SC(C)(C)C(=O)O)ccc3cnsc23)ccc1C#N [Example 88, 2-[[7-(4-Cyano-3-methylphenyl)benzo[d]isothiazol-6-yl]thio]-2-methylpropanoic acid] |
| 12.1% | – | Cc1cc(C#N)ccc1-c1c(SC(C)(C)C(=O)O)ccc2cnsc12 [Example 86, 2-[[7-(4-Cyano-2-methylphenyl)benzo[d]isothiazol-6-yl]thio]-2-methylpropanoic acid] |
| 1.8% | 7.67 | N#Cc1ccc(-c2c(SC3(C(=O)O)CCC3)ccc3cnsc23)cc1 [Example 66, 1-[[7-(4-Cyanophenyl)benzo[d]isothiazol-6-yl]thio]cyclobutan-1-carboxylic acid] |
| < 0.1% | 6.97 | CC(C)(Sc1ccc2cnsc2c1-c1ccc(Cl)cc1)C(=O)O [Example 82, 2-[[7-(4-Chlorophenyl)benzo[d]isothiazol-6-yl]thio]-2-methylpropanoic acid] |
| 2.7% | 6.53 | N#Cc1ccc(-c2c(SC3(C(=O)O)CCCCC3)ccc3cnsc23)cc1 [Example 117, 1-[[7-(4-Cyanophenyl)benzo[d]isothazol-6-yl]thio]cyclohexan-1-carboxylic acid] |
| 1.3% | 7.60 | C/C(=C\C(=O)O)Sc1ccc2ccccc2c1-c1ccc(C#N)cc1 [Example 116, (E)-3-[[1-(4-cyanophenyl)naphthalen-2-yl]thio]-2-butenoic acid] |

Further lines, the compound ahead of its results:

| SMILES | remaining activity at 10 µM | pIC50 |
| --- | --- | --- |
| N#Cc1ccc(-c2c(O/C=C/C(=O)O)ccc3ccccc23)cc1 [Example 6, (E)-3-[[1-(4-Cyanophenyl)naphthalen-2-yl]oxy]acrylic acid] | 5.4% | – |
| N#Cc1ccc(-c2c(O/C=C\C(=O)O)ccc3ccccc23)cc1 [Example 7, (Z)-3-[[1-(4-Cyanophenyl)naphthalen-2-yl]oxy]acrylic acid] | 29.5% | – |
| O=C(O)/C=C/Oc1ccc2ccccc2c1-c1cccnc1 [Example 10, (E)-3-[[1-(Pyridin-3-yl)naphthalen-2-yl]oxy]acrylic acid] | 27.1% | – |
| CC(C)(Sc1c(-c2ccc(C#N)cc2)cnc2ccccc12)C(=O)O [Example 45, 2-[[3-(4-Cyanophenyl)quinolin-4-yl]thio]-2-methylpropanoic acid] | 36.5% | 5.80 |
| CC(C)(Oc1ccc2ncoc2c1-c1ccc(C#N)cc1)C(=O)O [Example 17, 2-[[7-(4-Cyanophenyl)benzo[d]oxazol-6-yl]oxy]-2-methylpropanoic acid] | 59.3% | – |
| CC(C)(Oc1ccc2cnsc2c1-c1ccc(C#N)cc1)C(=O)O [Example 26, 2-[[7-(4-Cyanophenyl)benzo[d]isothiazol-6-yl]oxy]-2-methylpropanoic acid] | 11.6% | – |
| CC(C)(Oc1ccc2ccccc2c1-c1cccnc1)C(=O)O [Example 8, 2-Methyl-2-[[1-(pyridin-3-yl)naphthalen-2-yl]oxy]propanoic acid] | 61.3% | – |
| CC(C)(Oc1ccc2ccccc2c1-c1ccc(C#N)c2ccccc12)C(=O)O [Example 2, 2-[(4′-Cyano-(1,1′-binaphthalene)-2-yl]oxy]-2-methylpropanoic acid] | 45.4% | 5.69 |
| CC(C)(Sc1ccc2nc(C(F)(F)F)sc2c1-c1ccc(C#N)cc1)C(=O)O [Example 60, 2-[[7-(4-Cyanophenyl)-2-(trifluoromethyl)benzo[d]thiazol-6-yl]thio]-2-methylpropanoic acid] | 69.2% | – |
| CC(C)(Oc1ccc2ncsc2c1-c1ccc(C#N)cc1)C(=O)O [Example 19, 2-[[7-(4-Cyanophenyl)benzo[d]thiazol-6-yl]oxy]-2-methylpropanoic acid] | 15.6% | – |
| CC(C)(Sc1ccc2cnsc2c1-c1ccc(C#N)cc1)C(=O)O [Example 28, 2-[[7-(4-Cyanophenyl)benzo[d]isothiazol-6-yl]thio]-2-methylpropanoic acid] | 0.1% | – |
| CC(C)(Oc1c(-c2ccc(C#N)cc2)ccc2ncsc12)C(=O)O [Example 37, 2-[[6-(4-Cyanophenyl)benzo[d]thiazol-7-yl]oxy]-2-methylpropanoic acid] | 78.6% | – |
| CC(C)(Sc1ccc2ccccc2c1-c1ccc(C#N)c2ccccc12)C(=O)O [Example 4, 2-[(4′-Cyano[1,1′-binaphthalene]-2-yl)thio]-2-methylpropanoic acid] | 15.1% | 6.10 |
| Cc1nc2ccc(SC(C)(C)C(=O)O)c(-c3ccc(C#N)cc3)c2s1 [Example 62, 2-[[7-(4-Cyanophenyl)-2-methylbenzo[d]thiazol-6-yl]thio]-2-methylpropanoic acid] | 49% | – |
| CC(C)(Sc1ccc2ncccc2c1-c1ccc(C#N)cc1)C(=O)O [Example 15, 2-[[5-(4-Cyanophenyl)quinolin-6-yl]thio]-2-methylpropanoic acid] | 50.1% | 5.46 |
| CC(C)(Sc1ccc2ncsc2c1-c1ccc(C#N)cc1)C(=O)O [Example 24, 2-[[7-(4-Cyanophenyl)benzo[d]thiazol-6-yl]thio]-2-methylpropanoic acid] | 7.4% | 6.77 |
